# What was measured:
# Experiment in all cases: Test E preemergence
# [1] = tested on: Italian ryegrass; assay type: in vivo, Lolium multiflorum; details: for Ryegrass, Italian plant response rating: scale 0 to 100 (0 no effect, 100 complete control)
# Source text: (§1) Seeds of plant species selected from corn (Zea mays), soybean (Glycine max), velvetleaf (Abutilon theophrasti), lambsquarters (Chenopodium album), wild poinsettia (Euphorbia heterophylla), palmer pigweed (Amaranthus palmeri), waterhemp (common waterhemp, Amaranthus rudis), surinam grass (Brachiaria decumbens), large (Lg) crabgrass (Digitaria sanguinalis), Brazilian crabgrass (Digitaria horizontalis), fall panicum (Panicum dichotomiflorum), giant foxtail (Setaria faberii), green foxtail (Setaria viridis), goosegrass (Eleusine indica), johnsongrass (Sorghum halepense), ragweed (common ragweed, Ambrosia elatior), barnyardgrass (Echinochloa crus-galli), sandbur (southern sandbur, Cenchrus echinatus), arrowleaf sida (Sida rhombifolia), Italian ryegrass (Lolium multiflorum), dayflower (Virginia (VA) dayflower, Commelina virginica), field bindweed (Convolvulus arvensis), morningglory (Ipomoea coccinea), nightshade (eastern black nightshade, Solanum ptycanthum), kochia (Kochia scoparia), yellow nutsedge (Cyperus esculentus), cocklebur (common cocklebur, Xanthium strumarium), smartweed (ladysthumb smartweed, and hairy beggarticks (Bidens pilosa), were planted into a silt loam soil and treated preemergence with test chemicals formulated in a non-phytotoxic solvent mixture which included a surfactant.
# (§2) At the same time, plants from these crop and weed species and also horseweed (Canada horseweed, Conyza canadensis), waterhemp_RES1, (ALS & Triazine resistant common waterhemp, Amaranthus rudis), and waterhemp_RES2, (ALS & HPPD resistant common waterhemp, Amaranthus rudis) were planted in pots containing Redi-Earth® planting medium (Scotts Company, 14111 Scottslawn Road, Marysville, Ohio 43041) comprising spaghnum peat moss, vermiculite, wetting agent and starter nutrients were treated with postemergence applications of test chemicals formulated in the same manner. Plants ranged in height from 2 to 18 cm for postemergence treatments (1- to 4-leaf stage). Treated plants and controls were maintained in a greenhouse for 14 to 21 days, after which time all species were compared to controls and visually evaluated. Plant response ratings, summarized in Table E, are based on a scale of 0 to 100 where 0 is no effect and 100 is complete control. A dash (-) response means no test result.
# [2] = tested on: hairy beggarticks; assay type: in vivo, Bidens pilosa; details: for Beggarticks plant response rating: scale 0 to 100 (0 no effect, 100 complete control)
# Source text: as §1, §2
# [3] = tested on: sandbur; assay type: in vivo, Cenchrus echinatus; details: for Sandbur plant response rating: scale 0 to 100 (0 no effect, 100 complete control)
# Source text: as §1, §2
# [4] = tested on: arrowleaf sida; assay type: in vivo, Sida rhombifolia; details: for Arrowleaf Sida plant response rating: scale 0 to 100 (0 no effect, 100 complete control)
# Source text: as §1, §2
# [5] = tested on: lambsquarters; assay type: in vivo, Chenopodium album; details: for Lambsquarters plant response rating: scale 0 to 100 (0 no effect, 100 complete control)
# Source text: as §1, §2
# [6] = tested on: goosegrass; assay type: in vivo, Eleusine indica; details: for Goosegrass plant response rating: scale 0 to 100 (0 no effect, 100 complete control)
# Source text: as §1, §2
# [7] = tested on: green foxtail; assay type: in vivo, Setaria viridis; details: for Foxtail, Green plant response rating: scale 0 to 100 (0 no effect, 100 complete control)
# Source text: as §1, §2
# [8] = tested on: wild poinsettia; assay type: in vivo, Euphorbia heterophylla; details: for Poinsettia, Wild plant response rating: scale 0 to 100 (0 no effect, 100 complete control)
# Source text: as §1, §2
# [9] = tested on: yellow nutsedge; assay type: in vivo, Cyperus esculentus; details: for Nutsedge, Yellow plant response rating: scale 0 to 100 (0 no effect, 100 complete control)
# Source text: as §1, §2
# [10] = tested on: surinam grass; assay type: in vivo, Brachiaria decumbens; details: for Surinam Grass plant response rating: scale 0 to 100 (0 no effect, 100 complete control)
# Source text: as §1, §2
# [11] = tested on: dayflower; assay type: in vivo, Commelina virginica; details: for Dayflower, VA plant response rating: scale 0 to 100 (0 no effect, 100 complete control)
# Source text: as §1, §2
# [12] = 8 g ai/ha, scale 0 to 100, 0 is no effect, 100 is complete control
# [13] = 125 g ai/ha, scale 0 to 100, 0 no effect, 100 complete control
# [14] = 8 g ai/ha, preemergence, scale 0 to 100, 0 is no effect, 100 is complete control
# [15] = Preemergence, 62 g ai/ha, scale 0 to 100, 0 no effect, 100 complete control
# [16] = preemergence, 125 g ai/ha, scale 0 to 100, 0 no effect, 100 complete control
# [17] = 250 g ai/ha, scale 0 to 100, 0 no effect, 100 complete control
# [18] = preemergence, 250 g ai/ha, scale 0 to 100, 0 no effect, 100 complete control
structure (smiles),measurement,setting,value
"Clc1cnc(Oc2ccccc2-n2cc(Br)cn2)nc1 [Compound 7, 2-[2-(4-bromo-1H-pyrazol-1-yl)phenoxy]-5-chloropyrimidine]","Plant response rating, Ryegrass, Italian",[1]; [12],0
same,"Ryegrass, Italian plant response rating",[1]; 16 g ai/ha,0
same,"Ryegrass, Italian plant response rating",[1]; 31 g ai/ha,0
same,"Ryegrass, Italian plant response rating",[1]; 62 g ai/ha,0
same,"Plant response rating, Ryegrass, Italian",[1]; [13],20
same,"Plant response rating, Beggarticks",[2]; [14],0
same,Beggarticks plant response rating,"[2]; 16 g ai/ha, preemergence",0
same,Beggarticks plant response rating,"[2]; 31 g ai/ha, preemergence",0
same,"Plant response rating, Beggarticks",[2]; [15],0
same,"Plant response rating, Beggarticks",[2]; [16],0
same,"Plant response rating, Sandbur",[3]; [12],0
same,Sandbur plant response rating,[3]; 16 g ai/ha,0
same,Sandbur plant response rating,[3]; 31 g ai/ha,0
same,Sandbur plant response rating,[3]; 62 g ai/ha,0
same,"Plant response rating, Sandbur",[3]; [13],35
same,"Plant response rating, Arrowleaf Sida",[4]; [14],0
same,Arrowleaf Sida plant response rating,"[4]; 16 g ai/ha, preemergence",0
same,Arrowleaf Sida plant response rating,"[4]; 31 g ai/ha, preemergence",25
same,"Plant response rating, Arrowleaf Sida",[4]; [15],50
same,"Plant response rating, Arrowleaf Sida",[4]; [16],80
same,"Plant response rating, Lambsquarters",[5]; [12],0
same,Lambsquarters plant response rating,[5]; 16 g ai/ha,0
same,Lambsquarters plant response rating,[5]; 31 g ai/ha,75
same,Lambsquarters plant response rating,[5]; 62 g ai/ha,98
same,"Plant response rating, Lambsquarters",[5]; [13],100
same,"Plant response rating, Goosegrass",[6]; [12],0
same,Goosegrass plant response rating,[6]; 16 g ai/ha,0
same,Goosegrass plant response rating,[6]; 31 g ai/ha,35
same,Goosegrass plant response rating,[6]; 62 g ai/ha,40
same,"Plant response rating, Goosegrass",[6]; [13],75
same,"Plant response rating, Foxtail, Green",[7]; [12],0
same,"Foxtail, Green plant response rating",[7]; 16 g ai/ha,0
same,"Foxtail, Green plant response rating",[7]; 31 g ai/ha,30
same,"Foxtail, Green plant response rating",[7]; 62 g ai/ha,35
same,"Plant response rating, Foxtail, Green",[7]; [13],75
same,"Plant response rating, Poinsettia, Wild",[8]; [12],0
same,"Poinsettia, Wild plant response rating",[8]; 16 g ai/ha,0
same,"Poinsettia, Wild plant response rating",[8]; 31 g ai/ha,0
same,"Plant response rating, Poinsettia, Wild",[8]; [13],0
same,"Plant response rating, Nutsedge, Yellow",[9]; [12],0
same,"Nutsedge, Yellow plant response rating",[9]; 16 g ai/ha,0
same,"Nutsedge, Yellow plant response rating",[9]; 31 g ai/ha,0
same,"Nutsedge, Yellow plant response rating",[9]; 62 g ai/ha,0
same,"Plant response rating, Nutsedge, Yellow",[9]; [13],0
same,"Plant response rating, Surinam Grass",[10]; [12],0
same,Surinam Grass plant response rating,[10]; 16 g ai/ha,0
same,Surinam Grass plant response rating,[10]; 31 g ai/ha,0
same,Surinam Grass plant response rating,[10]; 62 g ai/ha,10
same,"Plant response rating, Surinam Grass",[10]; [13],35
same,"Plant response rating, Dayflower, VA",[11]; [12],0
same,"Dayflower, VA plant response rating",[11]; 16 g ai/ha,0
same,"Dayflower, VA plant response rating",[11]; 31 g ai/ha,0
same,"Dayflower, VA plant response rating",[11]; 62 g ai/ha,20
same,"Plant response rating, Dayflower, VA",[11]; [13],65
FC(F)(F)c1cnn(-c2ccccc2Oc2ncc(Cl)cn2)c1 [Compound 16],"Ryegrass, Italian plant response rating",[1]; 16 g ai/ha,0
same,"Ryegrass, Italian plant response rating",[1]; 31 g ai/ha,0
same,"Ryegrass, Italian plant response rating",[1]; 62 g ai/ha,15
same,"Plant response rating, Ryegrass, Italian",[1]; [13],40
same,"Plant response rating, Ryegrass, Italian",[1]; [17],75
same,Beggarticks plant response rating,"[2]; 16 g ai/ha, preemergence",0
same,Beggarticks plant response rating,"[2]; 31 g ai/ha, preemergence",0
same,"Plant response rating, Beggarticks",[2]; [15],0
same,"Plant response rating, Beggarticks",[2]; [16],0
same,"Plant response rating, Beggarticks",[2]; [18],0
same,Sandbur plant response rating,[3]; 16 g ai/ha,0
same,Sandbur plant response rating,[3]; 31 g ai/ha,20
same,Sandbur plant response rating,[3]; 62 g ai/ha,20
same,"Plant response rating, Sandbur",[3]; [13],70
same,"Plant response rating, Sandbur",[3]; [17],95
same,Arrowleaf Sida plant response rating,"[4]; 16 g ai/ha, preemergence",5
same,Arrowleaf Sida plant response rating,"[4]; 31 g ai/ha, preemergence",35
same,"Plant response rating, Arrowleaf Sida",[4]; [15],70
same,"Plant response rating, Arrowleaf Sida",[4]; [16],95
same,"Plant response rating, Arrowleaf Sida",[4]; [18],98
same,Lambsquarters plant response rating,[5]; 16 g ai/ha,50
same,Lambsquarters plant response rating,[5]; 31 g ai/ha,80
same,Lambsquarters plant response rating,[5]; 62 g ai/ha,98
same,"Plant response rating, Lambsquarters",[5]; [13],98
same,"Plant response rating, Lambsquarters",[5]; [17],98
same,Goosegrass plant response rating,[6]; 16 g ai/ha,0
same,Goosegrass plant response rating,[6]; 31 g ai/ha,35
same,Goosegrass plant response rating,[6]; 62 g ai/ha,50
same,"Plant response rating, Goosegrass",[6]; [13],75
same,"Plant response rating, Goosegrass",[6]; [17],95
same,"Foxtail, Green plant response rating",[7]; 16 g ai/ha,0
same,"Foxtail, Green plant response rating",[7]; 31 g ai/ha,20
same,"Foxtail, Green plant response rating",[7]; 62 g ai/ha,70
same,"Plant response rating, Foxtail, Green",[7]; [13],90
same,"Plant response rating, Foxtail, Green",[7]; [17],100
same,"Poinsettia, Wild plant response rating",[8]; 16 g ai/ha,0
same,"Poinsettia, Wild plant response rating",[8]; 31 g ai/ha,0
same,"Poinsettia, Wild plant response rating",[8]; 62 g ai/ha,50
same,"Plant response rating, Poinsettia, Wild",[8]; [13],50
same,"Plant response rating, Poinsettia, Wild",[8]; [17],100
same,"Nutsedge, Yellow plant response rating",[9]; 16 g ai/ha,0
same,"Nutsedge, Yellow plant response rating",[9]; 31 g ai/ha,0
same,"Nutsedge, Yellow plant response rating",[9]; 62 g ai/ha,0
same,"Plant response rating, Nutsedge, Yellow",[9]; [13],35
same,"Plant response rating, Nutsedge, Yellow",[9]; [17],35
same,Surinam Grass plant response rating,[10]; 16 g ai/ha,0
same,Surinam Grass plant response rating,[10]; 31 g ai/ha,0
same,Surinam Grass plant response rating,[10]; 62 g ai/ha,0
same,"Plant response rating, Surinam Grass",[10]; [13],30
same,"Plant response rating, Surinam Grass",[10]; [17],50
same,"Dayflower, VA plant response rating",[11]; 16 g ai/ha,0
same,"Dayflower, VA plant response rating",[11]; 31 g ai/ha,0
same,"Dayflower, VA plant response rating",[11]; 62 g ai/ha,35
same,"Plant response rating, Dayflower, VA",[11]; [13],70
same,"Plant response rating, Dayflower, VA",[11]; [17],98
